Where “and” joins values, the source holds several entries; their conditions need not be identical. Equal values may be shown once.
How the values were obtained:
[1] = Freeze/thaw cycling of meat soaked in trehalose solution: fluid loss and weight loss (pork); conditions: for weight loss: post 3 freeze/thaw cycles, first week (FIG. 4), 0% trehalose about 10%
Protocol: (§1) Variables included the high and low temperatures of the temperature range, and frequency of the freeze/thaw cycles. In one embodiment, treated meat samples were placed in a minus 40 degrees C. freezer for 24 hours, followed by room temperature for 6 hours, which was followed by 18 hours at 0.5 to 5.0 degrees C., in a refrigerator. This cycle was immediately followed by minus 40 degrees C. freezer for 24 h, room temperature for 6 h, which was followed by 18 hours at 0.5 to 5.0 degrees C., in a refrigerator. Chicken breast fillet, pork chops, and London broil beef, were obtained from local suppliers and were cut in water. Each type of meat was cut into four even-sized pieces, and the weight was recorded. Each piece was immersed separately in either water or in test solution, e.g., trehalose or saline, for 12 h. The meat was removed from the water, and excess water was blotted off. Place each sample in a Ziploc® plastic bag. Weights were recorded. The weighed samples were set in a container, and placed in a freezer, where each sample was at the same level (same level relative to the floor of the freezer). The freezer (minus 40 degrees C.) was Puffer Hubbard Model #4017A-U-A, Harris Manufacturing Co., North Billerica, Mass. […] Then, the following steps were used: Repeat Steps 1 to 4 until a total of 14 days have passed. Step 1. After 24 h in the freezer, remove the container bearing all of the samples. Take photographs of the samples and record the date. Thawing occurs when the meat is taken from the freezer and left in the refrigerator. Although the meat is completely thawed prior to 24 hours of incubation in the refrigerator, the time of 24 hours was used to standardize the procedure. Step 2. Place all samples (still in the same container) in refrigerator. Step 3. After in the refrigerator 24 h, then remove the container with all the samples, and take photos and record the date. Step 4. Place samples, still in the same container, in the freezer. As mentioned above, repeat Steps 1 to 4 until a total of 14 days have passed. Step 5. After the last sample photos were taken, samples were removed from its bag, and the weight was recorded after removing excess ice from the sample. The ice is left in the bag. Replace sample in Ziploc® bag. Place all bags at room temperature until all the ice has melted, and pour fluid into clear plastic tube with graduated side (fluid from each bag), and record the volumes of the fluid. Alternatively, volume can be determined with a pipette. Step 6. Place all weighed meat samples into the same Ziploc® bag, and place back in the refrigerator to thaw. After thawing, remove the meat samples from each bag, and pour excess fluid into graduated cylinder tubes (the tubes that held the ice that had melted), and record additional volumes. Between the first week (three freeze/thaw cycles) and the second week (three more freeze/thaw cycles), there was no re-exposure to trehalose. All samples were removed from the refrigerator. Liquid was in most of the sample bags. Fluid was removed by a pipette and the volume was recorded, and the meat sample was weighed. Samples of about 1-2 grams were taken using a no. 10 scalpel, and placed in formalin. FIG. 6 discloses the volume of fluid lost during the second week of freeze/thaw cycles.

[2] = Freeze/thaw cycling of meat soaked in trehalose solution: fluid loss and weight loss (beef); conditions: for weight loss: post 3 freeze/thaw cycles, first week (FIG. 4), 0% trehalose about 18%
Protocol: as §1

[3] = Freeze/thaw cycling of meat soaked in trehalose solution: fluid loss and weight loss (chicken)
Protocol: as §1

[4] = 0%, 5%, 10%, 15% trehalose, three freeze/thaw cycles, first week (FIG. 1)
[5] = cumulative, first and second week (FIG. 12)
[6] = second week of freeze/thaw cycles (FIG. 8)
[7] = second week of freeze/thaw cycles, no re-exposure to trehalose

Compound: OC[C@H]1O[C@H](O[C@H]2O[C@H](CO)[C@@H](O)[C@H](O)[C@H]2O)[C@H](O)[C@@H](O)[C@@H]1O [trehalose, trehalose dihydride]
- effect of trehalose concentration on volume of fluid lost [1, 4]: Increasing the concentration of trehalose resulted in decreasing volumes of fluid lost
- loss of water/10 grams of meat ([1]; 15% trehalose, first week (FIG. 5), 0% trehalose 1.0): 0.4 mL/10 grams of meat
- trehalose concentration with maximal effect on cumulative weight loss [1, 5]: 15%
- effect of trehalose on weight loss ([1]; first week (FIG. 18)): reduction was progressively effective for 5%, 10%, and 15% trehalose
- effect of trehalose on weight loss ([1]; second week (FIG. 18)): weight reduction seemed to plateau when trehalose was in the range of 5-15% trehalose
- trehalose concentration with lowest weight loss [1, 6]: 5% (or 15%)
- trehalose concentration with maximal effect on reducing fluid loss [1, 7]: 15%
- weight loss ([1]; soaked in 5% trehalose): about 9%
- weight loss ([1]; soaked in 10% trehalose): about 8%
- weight loss ([1]; soaked in 15% trehalose): about 5%
- effect of trehalose concentration on volume of fluid lost [2, 4]: Increasing the concentration of trehalose resulted in decreasing volumes of fluid lost
- loss of water/10 grams of meat ([2]; 10% trehalose, first week (FIG. 5), 0% trehalose about 1.8): about 0.9 mL/10 grams of meat
- fluid loss for the first week relative to fluid loss for the second week ([2]; at each respective trehalose value (FIG. 16)): 2-3 times
- trehalose concentration with maximal reduction in cumulative fluid loss ([2]; cumulative, first and second week): 10% and 10-15%
- trehalose concentration with maximal effect on cumulative weight loss [2, 5]: 10% and 10-15%
- effect of trehalose on weight loss ([2]; first week (FIG. 19)): reduction was progressively effective for 5%, 10%-15% trehalose
- effect of trehalose on weight loss ([2]; second week (FIG. 19)): weight reduction seemed to plateau when trehalose was in the range of 5-15% trehalose
- trehalose concentration with lowest weight loss [2, 6]: 15%
- trehalose concentration with maximal effect on reducing fluid loss [2, 7]: 10%
- weight loss ([2]; soaked in 5% trehalose): ~15%
- weight loss ([2]; soaked in 10% trehalose): about 8%
- weight loss ([2]; soaked in 15% trehalose): about 10%
- loss of water/10 grams of meat ([3]; chicken, 15% trehalose, first week (FIG. 5), 0% trehalose about 1.8): 0.47 mL/10 grams of meat
- trehalose concentration with maximal effect on cumulative weight loss ([3]; chicken, cumulative, first and second week (FIG. 12)): 15%
- effect of trehalose on weight loss ([3]; chicken, first week (FIG. 17)): reduction was about the same (plateau in trehalose effect) for 5%, 10%, and 15% trehalose
- effect of trehalose on weight loss ([3]; chicken, second week (FIG. 17)): weight reduction by trehalose was only found at 10% and 15% trehalose
- trehalose concentration with lowest weight loss ([3]; chicken, second week of freeze/thaw cycles (FIG. 8)): 15%
- trehalose concentration with maximal effect on reducing fluid loss ([3]; chicken, second week of freeze/thaw cycles, no re-exposure to trehalose): 15%
- weight loss ([3]; chicken, soaked in 5%, 10%, or 15% trehalose, post-soak weight vs post 3 freeze/thaw cycles, first week (FIG. 4), 0% trehalose 18%): 10-11%
- effect of trehalose concentration on volume of fluid lost ([3]; poultry, 0%, 5%, 10%, 15% trehalose, three freeze/thaw cycles, first week (FIG. 1)): Increasing the concentration of trehalose resulted in decreasing volumes of fluid lost
